From patent US10570117B2, “Phenylimidazole compound” (Otsuka Pharmaceutical Factory, Inc., priority 2015, dated 2020)
In brackets after ≈: the same amount, converted by molar mass. Read-outs that look alike come from different tables or passages of the source.

How the values were obtained:
[1] = Solubility in gastric juice or intestinal juice model fluid (precipitation method using DMSO); assay type: physicochemical; conditions: room temperature
Method: Solubility in Gastric Juice or Intestinal Juice Model Fluid
Measurement was performed by a precipitation method using DMSO. Specifically, each of the dimethyl sulfoxide (DMSO) solutions of the compounds was individually added to 1st fluid for Disintegration Test of Japanese Pharmacopoeia (pH: 1.2) or 2nd fluid for Disintegration Test of Japanese Pharmacopoeia (pH: 6.8), and the mixtures were stirred by shaking at room temperature for 24 hours. Subsequently, insoluble substances in each mixture were removed by filtration, and the UV absorption of each filtrate was measured. The obtained values were individually applied to the calibration curves of the compounds prepared in advance to calculate the concentrations of the compounds dissolved (μg/mL).

[2] = pH 1.2, simulated gastric fluid, kinetic from dmso stock, 1st fluid for Disintegration Test of Japanese Pharmacopoeia (pH: 1.2), read-out: Solubility (μg/mL) 1st fluid
[3] = pH 6.8, kinetic from dmso stock, 2nd fluid for Disintegration Test of Japanese Pharmacopoeia (pH: 6.8), read-out: Solubility (μg/mL) 2nd fluid

Structure (SMILES) | solubility at 24 h [1, 2] [µg/mL] | solubility at 24 h [1, 3] [µg/mL] | melting point
COc1cc(-c2nc(-c3ccc(Cl)cn3)[nH]c2C)ccc1OCc1ccc(C(F)(F)F)cn1 [Example 31] | 7.7 (≈ 16.2 µM) | 1.6 (≈ 3.37 µM) | 168 to 171 °C
COc1cc(OCc2ccc(C(F)(F)F)nc2)ccc1-c1c[nH]c(C2CCCCC2)n1 [Example 53] | > 86 | 4.6 (≈ 10.7 µM) | 62 to 73 °C
COc1cc(OCc2ccc(C(F)(F)F)cn2)ccc1-c1c[nH]c(C2CCC(F)(F)CC2)n1 [Example 61] | > 101 | 1.6 (≈ 3.42 µM) | 232 to 237 °C
COc1cc(-c2c[nH]c(C3CCC(F)(F)CC3)n2)ccc1OCc1ccc(C(F)(F)F)cn1 [Example 62] | > 101 | 1.3 (≈ 2.78 µM) | > 250 °C
COc1cc(-c2c[nH]c(C3CCC(F)(F)CC3)n2)cc(OC)c1OCc1ccc(C(F)(F)F)cn1 [Example 63] | 82.2 (≈ 165 µM) | 12.5 (≈ 25.1 µM) | 155 to 168 °C (dec.)
COc1cc(-c2c[nH]c(C3CCC(C)CC3)n2)ccc1OCc1ccc(C(F)(F)F)cn1 (stereo not drawn) [Example 64] | 56.2 (≈ 126 µM) | 2.6 (≈ 5.84 µM) | 147 to 150 °C
COc1cc(-c2c[nH]c(C34CC5CC(CC(C5)C3)C4)n2)cc(OC)c1OCc1ccc(C(F)(F)F)cn1 [Example 66] | 56.9 (≈ 111 µM) | 0.9 (≈ 1.75 µM) | 144 to 168 °C
COc1cc(-c2c[nH]c(C34CC5CC(CC(C5)C3)C4)n2)ccc1OCc1ccc(C(F)(F)F)cn1 [Example 67] | 93.5 (≈ 193 µM) | 0.4 (≈ 0.827 µM) | 209 to 217 °C
COc1cc(-c2c[nH]c(C3CCC(C(C)(C)C)CC3)n2)ccc1OCc1ccc(C(F)(F)F)cn1 (stereo not drawn) [Example 69] | 5.3 (≈ 10.9 µM) | 1.3 (≈ 2.67 µM) | 159 to 161 °C
COc1cc(-c2c[nH]c(C3CCCCCC3)n2)cc(OC)c1OCc1ccc(C(F)(F)F)cn1 [Example 74] | 53.6 (≈ 113 µM) | 1.8 (≈ 3.79 µM) | 177 to 179 °C
COc1cc(OCc2ccc(C(F)(F)F)cn2)ccc1-c1c[nH]c(C2CCCCCC2)n1 [Example 75] | 83.1 (≈ 187 µM) | 1 (≈ 2.24 µM) | 202 to 204 °C (dec.)
COc1cc(-c2c[nH]c(C3CCCCC3)n2)cc(OC)c1OCc1ccc(C(F)(F)F)cn1 [Example 76] | < 8.5 | 1 (≈ 2.17 µM) | 183 to 186 °C
COc1cc(-c2c[nH]c(C3CCCC3)n2)ccc1OCc1ccc(C(F)(F)F)cn1 [Example 78] | > 83 | 20.6 (≈ 49.3 µM) | 207 to 210 °C
COc1cc(-c2c[nH]c(C3CCCCC3)n2)ccc1OCc1ccc(C(F)(F)F)cn1 [Example 81] | 78.7 (≈ 182 µM) | 5.8 (≈ 13.4 µM) | 135 to 145 °C
COc1cc(-c2c[nH]c(C3CC3)n2)ccc1OCc1ccc(C(F)(F)F)cn1 [Example 82] | > 78 | 41.1 (≈ 106 µM) | 153 to 155 °C
COc1cc(-c2c[nH]c(-c3ccc(C)nc3)n2)ccc1OCc1ccc(C(F)(F)F)cn1 [Example 85] | 85.4 (≈ 194 µM) | 1 (≈ 2.27 µM) | 201 to 203 °C (dec.)
COc1cc(-c2c[nH]c(-c3ccccn3)n2)ccc1OCc1ccc(C(F)(F)F)cn1 [Example 87] | 39.4 (≈ 92.4 µM) | 0.7 (≈ 1.64 µM) | 217 to 220 °C
COc1cc(-c2c[nH]c(-c3ccc(C(F)(F)F)nc3)n2)ccc1OCc1ccc(C(F)(F)F)cn1 [Example 97] | 15.2 (≈ 30.7 µM) | 2.2 (≈ 4.45 µM) | 201 to 203 °C

Now from value to molecule:

solubility at 24 h [1, 2] [µg/mL] | solubility at 24 h [1, 3] [µg/mL] | melting point | Structure (SMILES)
24 (≈ 50.5 µM) | 0.6 (≈ 1.26 µM) | 228 to 230 °C (dec.) | COc1cc(-c2nc(-c3ccc(Cl)nc3)[nH]c2C)ccc1OCc1ccc(C(F)(F)F)cn1 [Example 30]
5.6 (≈ 12.2 µM) | 0.6 (≈ 1.3 µM) | 216 to 217 °C | COc1cc(OCc2cc(C(F)(F)F)ccn2)ccc1-c1c[nH]c(-c2ccc(Cl)nc2)n1 [Example 37]
23.3 (≈ 52.4 µM) | 1.3 (≈ 2.93 µM) | 152 to 154 °C | COc1cc(OCc2ccc(C(F)(F)F)cn2)ccc1-c1c[nH]c(-c2ccc(F)cn2)n1 [Example 41]
94.4 (≈ 191 µM) | 16.5 (≈ 33.3 µM) | 227 to 231 °C (dec.) | COc1cc(OCc2ccc(C(F)(F)F)cn2)ccc1-c1c[nH]c(-c2ccc(N3CCCC3)nc2)n1 [Example 58]
8.8 (≈ 21.1 µM) | 1.1 (≈ 2.63 µM) | 235 to 239 °C (dec.) | COc1cc(OCc2cccc(C#N)n2)ccc1-c1c[nH]c(-c2ccc(Cl)nc2)n1 [Example 60]
27.8 (≈ 66.6 µM) | 2.9 (≈ 6.95 µM) | 157 to 160 °C | COc1cc(OCc2ccc(Br)cc2F)ccc1-c1c[nH]c(C2CC2)n1 [Example 83]
73.5 (≈ 157 µM) | < 0.3 | 218 to 220 °C (dec.) | COc1cc(OCc2ccc(Br)cc2F)ccc1-c1c[nH]c(-c2ccc(C)nc2)n1 [Example 86]
54.1 (≈ 127 µM) | 0.5 (≈ 1.17 µM) | 214 to 216 °C | COc1cc(OCc2ccc(C(F)(F)F)cn2)ccc1-c1c[nH]c(-c2ccccn2)n1 [Example 88]
42.8 (≈ 94.2 µM) | 0.6 (≈ 1.32 µM) | 143 to 146 °C | COc1cc(OCc2ccc(Br)cc2F)ccc1-c1c[nH]c(-c2ccccn2)n1 [Example 91]
10 (≈ 21.7 µM) | 0.9 (≈ 1.95 µM) | > 280 °C | COc1cc(-c2c[nH]c(-c3ccc(Cl)nc3)n2)ccc1OCc1ccc(C(F)(F)F)cn1 [Example 93]
8.7 (≈ 18.9 µM) | 0.9 (≈ 1.95 µM) | 215 to 217 °C | COc1cc(OCc2ccc(C(F)(F)F)cn2)ccc1-c1c[nH]c(-c2ccc(Cl)nc2)n1 [Example 94]
37.1 (≈ 81.7 µM) | 1.3 (≈ 2.86 µM) | 226 to 230 °C | COc1cc(OCc2ccc(Br)cc2F)ccc1-c1c[nH]c(-c2ccncc2)n1 [Example 98]
92.5 (≈ 193 µM) | 8.9 (≈ 18.6 µM) | 164 to 186 °C | COc1cc(OCc2ncc(C(F)(F)F)cc2F)ccc1-c1cnc(-c2ccc(Cl)nc2)[nH]1 [Example 102]
27.6 (≈ 56.4 µM) | < 0.3 | 219 to 225 °C | COc1cc(OCc2ncc(Br)cc2F)ccc1-c1cnc(-c2ccc(Cl)nc2)[nH]1 [Example 105]
11.3 (≈ 25.4 µM) | 2.7 (≈ 6.08 µM) | 183 to 186 °C | COc1cc(OCc2cc(C(F)(F)F)ccn2)ccc1-c1cnc(-c2ccc(F)nc2)[nH]1 [Example 114]
15.5 (≈ 35 µM) | 2 (≈ 4.51 µM) | 125 to 135 °C | COc1cc(OCc2ccc(C(F)(F)F)cc2)ccc1-c1cnc(-c2ccc(F)nc2)[nH]1 [Example 115]
24.1 (≈ 54.2 µM) | < 1.6 | 144 to 146 °C | COc1cc(-c2cnc(-c3ccc(F)nc3)[nH]2)ccc1OCc1ccc(C(F)(F)F)nc1 [Example 116]
44.7 (≈ 113 µM) | 5.2 (≈ 13.2 µM) | 68 to 79 °C | COc1cc(-c2c[nH]c(-c3ccc(F)nc3)n2)ccc1OCc1ncccc1F [Example 119]
> 73 | 4 (≈ 10.9 µM) | 172 to 175 °C | COc1cc(OCn2cccn2)ccc1-c1c[nH]c(-c2ccc(F)nc2)n1 [Example 120]
7.1 (≈ 15 µM) | 5.6 (≈ 11.9 µM) | 172 to 176 °C | COc1cc(OCc2ccc(Br)cc2F)ccc1-c1c[nH]c(-c2ccc(F)nc2)n1 [Example 126]
39.9 (≈ 89.8 µM) | 36.1 (≈ 81.2 µM) | 210 to 212 °C (dec.) | COc1cc(OCc2cncc(C(F)(F)F)c2)ccc1-c1cnc(-c2ccc(F)nc2)[nH]1 [Example 137]
5 (≈ 10.8 µM) | < 0.3 | > 230 °C | COc1cc(OCc2ncc(C(F)(F)F)cc2F)ccc1-c1cnc(-c2ccc(F)nc2)[nH]1 [Example 139, 3-fluoro-2-[[4-(2-(6-fluoropyridin-3-yl)-1H-imidazol-5-yl)-3-methoxyphenoxy]methyl]-5-(trifluoromethyl)pyridine]
7.8 (≈ 18.9 µM) | 4.8 (≈ 11.6 µM) | 188 to 191 °C | COc1cc(OCc2ncc(F)cc2F)ccc1-c1cnc(-c2ccc(F)nc2)[nH]1 [Example 140]
2.4 (≈ 5.32 µM) | 0.3 (≈ 0.665 µM) | 241 to 244 °C (dec.) | COc1cc(OCc2ccc(C(F)(F)F)cn2)ccc1-c1cnc(-c2ccc(C#N)nc2)[nH]1 [Example 150, 5-[5-[2-methoxy-4-((5-(trifluoromethyl)pyridin-2-yl)methoxy)phenyl]-1H-imidazol-2-yl]picolinonitrile]
> 92 | 0.9 (≈ 1.96 µM) | 168 to 171 °C | COc1cc(OCc2ccc(C(F)(F)F)cn2)ccc1-c1cn(C)c(-c2ccc(F)nc2)n1 [Example 151, 2-fluoro-5-[4-[2-methoxy-4-((5-(trifluoromethyl)pyridin-2-yl)methoxy)phenyl]-1-methyl-1H-imidazol-2-yl]pyridine]
> 94 | 4 (≈ 8.47 µM) | 136 to 138 °C | COc1cc(OCc2ccc(C(F)(F)F)cn2)ccc1-c1c(C)nc(-c2ccc(F)nc2)n1C [Example 159]
